The nature of series [1]: Acid (HClO4) catalyzed demetalation kinetics. It is filed as physicochemical. Particulars: for k1* (acid catalyzed demetalation): HClO4, 25.0 °C, 350 nm; for half-life at 0.173 mM: aqueous HClO4 solution, pH 1, read-out: t1/2 [pH 1] (converted). As to the method:
Acid induced demetalation kinetics was monitored in kinetic mode of the spectrophotometer (Perkin-Elmer—λ35) using 1.00 cm quartz cell in thermostatted cell housing. In the all kinetic runs IB was kept constant at 0.173 mM while acid concentration was varied from 0.04 to 3.0 M using HClO4. The pseudo first order rate constants (kd) were calculated from the initial rates at 350 nm (one of the absorption peaks of complex IB) and temperature was kept constant at 25.0±0.5° C. For each set, solution pH was measured with a pH meter (LABINDIA, PICO^+) with calibrated electrode.
(§1) a. Kinetic Studies of Add Catalyzed Demetalation. • [Fe^III(biuret-amide)] catalyst are subject to H^+ catalyzed demetalation, following the Equation 1 according to Scheme 2 described above, kd=k1*[H^+]+k2*[H^+]^2+k3*[H^+]^3 where kd is the first order rate constant.

Series [2] is described as follows: Stability towards demetallation at different pH and phosphate buffer ionic strengths (UV-VIS). It is filed as physicochemical. Particulars: for demetalation in high concentration phosphate buffer: twenty four hour time scale, 350 nm. As to the method: In yet another embodiment, the stability of (IA) towards demetallation at different pH and ionic strengths is tested to evaluate the operational stability of the complex of instant invention for possible catalytic reactions in water. […] The stability of this complex is also monitored at different ionic strengths at pH 7. […] The phosphate buffer induced demetallation for similar Fe-TAML's have been studied in details. The proposed mechanism for phosphate buffer induced demetallation involves first the co-ordination of the O—PO(OH)2 into the Fe(III) center followed by the intramolecular attack of the H+ onto the amide N-donors. Complex (IA) has an extra —NMe group which is not bonded to the Fe(III) center. The lone pair on this N-atom resides predominantly in the p-orbital and can possibly be the first site for attack of the intramolecular H+ ion, thereby shielding complex (IA) from phosphate induced demetallation.
as §1

Series [3] can be described thus: Catalyzed bleaching of Orange II by H2O2. The conditions noted are these: for k−1: from kinetic fitting; for k1 / k2: 0.01M Phosphate Buffer. An excerpt:
In another embodiment, to study the efficacy of complex (IA) as H2O2 activating catalyst, its activity towards bleaching of the dye Orange II ([4-[(2-hydroxynaphthyl)azo]-benzene sulphonic acid], Na+ salt) is studied. […] The exponential kinetic curve, that holds for at least 6 half-lives (FIG. 8), indicates the fact that (IA) is oxidatively robust. Therefore, little or no degradation of the catalysts takes places during the course of the oxidation. This is because C—H bond of the —NMe group is situated very far away from the proposed Fe-oxo intermediate, thereby reducing the chances of ligand degradation by intramolecular C—H abstraction as has been proposed before for other Fe-TAML, complexes.
Using same Perkin-Elmer spectrophotometer Orange II bleaching kinetics were carried out in 0.01 M phosphate buffer at 485 nm, one of the absorption peaks of Orange II. pH was varied from 7 to 11. Strength of stock solutions of IB and Orange II were (2×10^−5 M) and (2−20×10^−4 M) respectively. Stock solution of hydrogen peroxide of 2×10^−2 M was made by measuring the optical density at 230 nm (ε=72.8 M^−1 cm^−1). Appropriate amount of stock solutions of Orange II, Fe^III-catalyst (IB) and H2O2 were added consecutively in the 1.00 cm quartz cell during experiments. Extinction coefficients for Orange II of 17,800, 23,000 and 19,400 M^−1 cm^−1 at pH 7, 9 and 11 respectively was used to calculate the initial rates of Orange II oxidation, Plot of concentration versus time was taken up to 10-20% of conversion of the dye compared to the total reaction.
b. Kinetics of IA and IB Catalyzed Bleaching of Orange II by H2O2 • Orange II dye has absorption maxima at 485 nm. Natural oxidant H2O2 slowly oxidizes Orange II but in presence of IA and IB huge catalysis was observed. The kinetic data followed the mechanism shown in Scheme 2. The initial rate of the dye bleaching reaction obeyed Michaelis-Menten type Equation (2) which was derived considering the steady state of oxidized [Fe^III(L2X)] species using mass balance equation [Fe^III]T=[Fe^III(L2X)]]+[Oxidized-[Fe^III L2X)]]. From kinetic fitting it was observed k.1˜0 for both IA and IB. […] In Table 3 all the kinetic parameters related to Orange II bleaching are given in details at 25° C. in 0.01 M Phosphate Buffer.

The nature of series [4]: Catalyzed bleaching of Safranine O by H2O2 and intramolecular inactivation. Particulars: pH 11.0, 25° C. The text has this:
Safranine O oxidation kinetics was monitored at 525 nm and pH 11 in 0.01 M Phosphate Buffer. The strengths of stock solutions of Safranine O, [Fe^III(biuret-amide)](X═H, NO2) IA, IB complexes and hydrogen peroxide were respectively 2×10^−3 M, 5×10^−5 M and 0.2 M respectively. The extinction coefficient of 3.3×10^4 […] at 525 nm was used to get initial rate in terms of concentration unit (Ms^−1). To get the intramolecular inactivation rate (ki) absorbance change with time was monitored up to complete inactivation of the catalyst. Calculations of rate constants were performed by using Equation (4) and (5).
c. […] For safranine O bleaching, Equation (2) can be simplified to Equation (3) and k2 value can be calculated from the initial rate vs, [Safranine O] data as given in Table 4.
d. Intramolecular Inactivation (ki) Measurement for Safranine O Bleaching at pH 11.0 • The mono exponential intramolecular inactivation rate constant (ki) measurement of the oxidized form of the catalyst was done by the method followed by Collins group. The simplified differential rate law for dye bleaching is given by Equation (3) where Dt and x are total concentrations of the dye and concentration of the bleached dye at time t respectively. Integrating the Equation (3) under the boundary condition x=x∞ at t=t∞ results Equation (4). Equation (5) was derived by replacing the concentration terms by the absorbance term.
From the slope of the double logarithm of the ratio At/A∞ vs. time plot in Equation 6 gives the value of ki (FIG. 13, Table 4). The rate constant k2 is calculated from the intercept of the plot by putting the value of ki.

The nature of series [5]: Cyclic voltammetry in acetonitrile. It is filed as physicochemical. An excerpt:
The σ-donor ability of (Et4N)2.[Fe^III(biuret-amide)] is studied using cyclic voltammetry. […] The peak observed for (IA) (E1/2 at −0.064 V) can most likely be assigned to a one electron oxidation for a Fe(III)/Fe(IV) couple while the other peak might be due to a ligand centered oxidation process (FIG. 6). On comparison with Fe-TAML complex (II) where a —CMe2 group is present instead of a —NMe group in the six membered ring of the complex, the Fe(III)/Fe(IV) couple for (IA) is found to be approximately 230 mV lower.
Infrared spectra were obtained on a Perkin-Elmer FT-IR spectrum GX instrument. LC-MS from Acquity Waters was used for ESI-MS analysis. EPR spectrum was recorded on a Bruker EMX X-band spectrometer operating at a field modulation of 100 kHz, modulation amplitude of 2. G and microwave radiation power of 2 mW. The solid Fe(III) complex was taken in a quartz tube and the spectrum was recorded at 298K. Cyclic voltammetry (CV) was done on an Autolab PGSTAT30 (Eco-Chemie) instrument in a conventional three-electrode test cell with platinum as the working electrode (WE), platinum wire as quasi reference electrode (RE) and a platinum foil as a counter electrode (CE). The measurements were carried out using a solution of 1 mM of (I) in dry acetonitrile with 0.1 M [n-Bu4N]PF6 as the supporting electrolyte. All reversible couples were confirmed by a linear dependence of peak current vs. the square root of the scan rate over the range of 20-200 mVs^−1.

The values that follow come from patent publication US8754206B2, “Metal (III) complex of biuret-amide based macrocyclic ligand as green oxidation catalyst” (Council of Scientific & Industrial Research, priority 2011, dated 2014).

In the case of `CN1C(=O)[N]2C(C)(C)C(=O)[N]3c4ccccc4[N]4C(=O)C(C)(C)[N](C1=O)[Fe]342[Cl]` [Catalyst 1A, Tetraethyl ammonium 3,3,6,9,9-pentamethyl-1,4,8,11-tetrahydro-1H-benzo[i][1,4,6,8,11]pentaazacyclotridecine-2,5,7,10(6H,11H)-tetraone ferrate], in series [1], the “acid induced demetalation compared to compound II” value is “significantly less”, the “k1* (acid catalyzed demetalation)” value was “(3.7 ± 0.5) × 10^−3 M^−1s^−1” and the half-life at 0.173 mM was 0.4 h. Further, the “stability at low pH” value in series [2] (in presence of HClO4) is reported as “very good stability up to pH 2”. The compound further had a half-life in series [2] (pH 5, 0.1M phosphate buffer, 25° C.) of roughly 18 h. The same compound came in with a complex degraded in series [2] (pH 5, 0.1M phosphate buffer, 5 hours, 25° C.) of 10%. For the same compound, in series [2] (pH 7, phosphate concentration), the “stability at different ionic strengths” value was “remarkably stable up to 0.5 M phosphate concentrations”. In addition, in series [2], the “demetalation in high concentration phosphate buffer” value is listed as “insignificant absorption change”. Further, the “k−1” value in series [3] is roughly 0. In series [3] (pH 7.0, 25° C.), the k1 entry is “(2.0 ± 0.1) × 10^2 M^−1s^−1” and the k2 entry is on record as “(2.0 ± 0.1) × 10^4 M^−1s^−1”. The “catalytic activity compared with Fe-TAML” value in series [3] (pH 7 and 9) is recorded as “much faster in oxidizing Orange II”. Further, in series [3] (pH 9.4, 25° C.), the k1 result is recorded as “(2.8 ± 0.2) × 10^3 M^−1s^−1” and the k2 entry was “(1.12 ± 0.10) × 10^5 M^−1s^−1”. Further, in series [3] (pH 11), the “bleaching of the dye Orange II by activation of H2O2” value is on record as “complete bleaching” and the “pseudo first order rate constant kobs” value turned out to be 0.021 ± 0.001 s⁻¹. Moreover, in series [3] (pH 11.0, 25° C.), the k1 result is “(3.4 ± 0.2) × 10^4 M^−1s^−1” and the k2 entry is recorded as “(1.60 ± 0.10) × 10^5 M^−1s^−1”. In addition, in series [4], the “ki × 10^4 (intramolecular inactivation)” value was found to be 3.7 ± 0.1 s^−1; the “k2 × 10^−3, from Equation (5)” value was 2.0 ± 0.1 M^−1s^−1; the “k2 × 10^−3, from initial rates” value amounted to 2.4 ± 0.1 M^−1s^−1. Also, the “Fe(III)/Fe(IV) couple lower than Fe-TAML complex (II)” value in series [5] is reported as “approximately 230 mV”. Further, the “formal reduction potential E1/2, reversible process (Fe(III)/Fe(IV) couple)” value in series [5] (acetonitrile, 0.1 M [n-Bu4N]PF6, vs Fc+/Fc) is listed as −0.064 V. Further, the “E1/2, quasi-reversible process” value in series [5] (acetonitrile, 0.1 M [n-Bu4N]PF6, vs Fe+/Fc) was −0.559 V.

Regarding `CN1C(=O)[N]2C(C)(C)C(=O)[N]3c4ccc([N+](=O)[O-])cc4[N]4C(=O)C(C)(C)[N](C1=O)[Fe]342[Cl]` [Catalyst 1B, Tetraethyl ammonium 3,3,6,9,9-pentamethyl-13-nitro-1,4,8,11-tetrahydro-1H benzo[i][1,4,6,8,11]pentaazacyclotridecine-2,5,7,10(6H,11H)-tetraone ferrate], in series [1], the “acid induced demetalation compared to compound II” value was “significantly less”, the “k1* (acid catalyzed demetalation)” value is listed as “(1.41 ± 0.09) × 10^−3 M^−1s^−1” and the half-life at 0.173 mM is 1.33 h. Moreover, the “demetalation in high concentration phosphate buffer” value in series [2] is “insignificant absorption change”. The “k−1” value in series [3] is listed as roughly 0. For the same compound, in series [3] (pH 7.0, 25° C.), the k1 entry is given as “(1.24 ± 0.10) × 10^3 M^−1s^−1” and the k2 result is “(4.1 ± 0.5) × 10^5 M^−1s^−1”. In addition, in series [3] (pH 9.4, 25° C.), the k1 result is given as “(2.36 ± 0.6) × 10^3 M^−1s^−1” and the k2 result is on record as “(4.2 ± 0.4) × 10^5 M^−1s^−1”. Moreover, in series [3] (pH 11.0, 25° C.), the k1 result is on record as “(2.4 ± 0.2) × 10^4 M^−1s^−1” and the k2 result is “(4.9 ± 0.5) × 10^5 M^−1s^−1”. For the same compound, in series [4], the “ki × 10^4 (intramolecular inactivation)” value amounted to 3.0 ± 0.2 s^−1; the “k2 × 10^−3, from Equation (5)” value is reported as 3.8 ± 0.3 M^−1s^−1; the “k2 × 10^−3, from initial rates” value turned out to be 3.9 ± 0.1 M^−1s^−1.
